The values that follow come from patent US7499847B2, “Crystalline VAP-1 and uses thereof” (Biotie Therapies Corporation, priority 2003, dated 2009).

By IC50 is commonly meant the concentration that gives 50% inhibition.

The subject of test [1] is T1, Total rat MAO (rat liver mitochondrial preparate).
T1 construct: Rat MAO was prepared from rat liver; Mitochondrial preparate was aliquoted and stored at −70° C
Nature of the test: Total rat MAO activity, colourimetric assay (tyramine substrate). It counts as biochemical. The note with it: rat liver MAO preparation, 0.5 mM tyramine, 1 h at 37° C.; read-out: Total MAO inhibitory activity IC50. As for the experimental part: Rat MAO was prepared from rat liver by rinsing a 1 g liver sample several times in 14 ml KCl-EDTA-solution to remove all blood. Then 1 g liver sample was homogenised in 4 ml ice-cold potassium phosphate buffer (0.1 M, pH 7.4) with an Ultra-Turrax homogeniser (setting 11 000 rpm, 4×10 s). After centrifugation at 500 g for 10 min at 4° C. the supematant was carefully withdrawn and was centrifuged at 12 300 g for 15 min at 4° C. The supernatant was discharged and sedimented mitochondria were resuspended in 4 ml fresh phosphate buffer and centrifuged as previously. The mitochondria were suspended in 4 ml phosphate buffer and homogenized with an Ultra-Turrax homogeniser (setting 11 000 rpm, 2×10 s). Mitochondrial preparate was aliquoted and stored at −70° C. […] To each well was added a predetermined amount of inhibitor if required. The amount of inhibitor varied in each assay but was generally at a final concentration of between 10 nM and […]. Controls lacked inhibitor. […] The plates were incubated for 30 min at 37° C. and the background absorbance measured at 490 nm using a Wallac Victor II multilabel counter. To initiate the enzyme reaction 20 μl of 5 mM tyramine (final concentration 0.5 mM) was added and the plate incubated for 1 h at 37° C. The increase in absorbance, reflecting MAO activity, was measured at 490nm. Inhibition was presented as percent inhibition compared to control after correcting for background absorbance and IC50 values calculated using GraphPad Prism. Clorgyline and pargyline (inhibitors of MAO-A and -B respectively) at 0.5 μM were added to some wells as positive controls for MAO inhibition.

For test [2], the target named is T2, Recombinant human VAP-1 SSAO (Homo sapiens, UniProt Q16853).
T2 construct: expressed in transfected cells; host or cells: CHO cells (clarified NP40 lysate used directly)
T2 sequence (Q16853 1-763): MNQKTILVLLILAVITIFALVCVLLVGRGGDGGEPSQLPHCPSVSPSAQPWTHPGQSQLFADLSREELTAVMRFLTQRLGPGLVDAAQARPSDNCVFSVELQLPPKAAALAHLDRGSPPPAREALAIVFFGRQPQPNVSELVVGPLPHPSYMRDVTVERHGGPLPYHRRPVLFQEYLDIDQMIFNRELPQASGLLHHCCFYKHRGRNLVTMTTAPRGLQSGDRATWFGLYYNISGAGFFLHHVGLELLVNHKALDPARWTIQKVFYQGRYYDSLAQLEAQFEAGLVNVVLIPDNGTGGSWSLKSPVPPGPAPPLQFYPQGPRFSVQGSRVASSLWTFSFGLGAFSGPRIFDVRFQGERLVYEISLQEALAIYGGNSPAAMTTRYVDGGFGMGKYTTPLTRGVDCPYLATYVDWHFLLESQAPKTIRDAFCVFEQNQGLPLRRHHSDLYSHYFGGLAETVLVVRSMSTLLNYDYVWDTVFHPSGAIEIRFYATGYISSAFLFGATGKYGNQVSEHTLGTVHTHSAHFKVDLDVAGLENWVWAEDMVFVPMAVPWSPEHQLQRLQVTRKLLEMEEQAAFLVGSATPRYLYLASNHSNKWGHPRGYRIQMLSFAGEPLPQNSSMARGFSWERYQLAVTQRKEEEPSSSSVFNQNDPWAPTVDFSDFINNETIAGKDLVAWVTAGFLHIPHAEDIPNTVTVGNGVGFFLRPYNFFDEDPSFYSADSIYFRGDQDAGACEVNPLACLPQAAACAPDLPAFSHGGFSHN
Nature of the test: VAP-1 SSAO activity, coupled colourimetric assay (benzylamine substrate). The following applies: for IC50: CHO cell lysate with recombinant human VAP-1 SSAO, 1 mM benzylamine, 1 h at 37° C., read-out: VAP-1 SSAO inhibitory activity IC50; for Selectivity for VAP-1 SSAO over MAO: ratio of total rat MAO IC50 to human VAP-1 SSAO IC50. It counts as biochemical. The protocol: VAP-1 SSAO activity was measured using the coupled colourimetric method essentially as described for monoamine oxidase and related enzymes. Recombinant human VAP-1 SSAO expressed in Chinese Hamster Ovary (CHO) cells was used as a source of VAP-1 SSAO for activity measurements. Native CHO cells have negligible SSAO activity. These cells and their culture have previously been described (Smith D J et al., 1998).
A cell lysate was prepared by suspending approximately 3.6×10^8 cells in 25 ml lysis buffer (150 mM NaCl, 10 mM Tris-Base pH 7.2, 1.5 mM MgCl2, 1% NP40) and incubating at 4° C. overnight on a rotating table. The lysate was clarified by centrifugation at 18000 g for 5 min at room temperature and the supematant used directly in the assay.
The VAP-1 SSAO assay was performed in 96 well microtitre plates as follows. To each well was added a predetermined amount of inhibitor if required. The amount of inhibitor varied in each assay but was generally at a final concentration of between 1 nM and 50 μM. Controls lacked inhibitor. The inhibitor was in a total volume of […] in water. The following reagents were then added. 0.2M potassium phosphate buffer pH 7.6 to a total reaction volume of 200 μl, 45 μl of freshly made chromogenic solution containing 1 mM 2,4-dichlorophenol, 500 μM 4-aminoantipyrine and 4 U/ml horseradish peroxidase and an amount of CHO cell lysate containing VAP-1 SSAO that caused a change of 0.6 A490 per h. This was within the linear response range of the assay.
The plates were incubated for 30 min at 37° C. and the background absorbance measured at 490 nm using a Wallac Victor II multilabel counter. To initiate the enzyme reaction 20 μl 10 mM benzylamine (final concentration=1 mM) was added and the plate incubated for 1 h at 37° C.
The increase in absorbance, reflecting VAP-1 SSAO activity, was measured at 490 nm. Inhibition was presented as percent inhibition compared to control after correcting for background absorbance and IC50. values calculated using GraphPad Prism.

As for `CN(N)CC(O)COc1ccccc1.O=C(O)/C=C\C(=O)O` (stereo not drawn) [Compound 1], in test [1], the IC50 amounted to 13000 nM. In test [2], the 50% inhibitory concentration (IC50) amounted to 370 nM and the “Selectivity for VAP-1 SSAO over MAO” value is given as 35.
The like results for `Cc1ccccc1OCC(O)CN(C)N.O=C(O)/C=C/C(=O)O` (stereo not drawn) [Compound 2] were, in that order, 8700 nM, 520 nM and 17.
The like results for `COC(COc1ccc(Cl)cc1)CN(C)N.O=C(O)/C=C/C(=O)O` (stereo not drawn) [Compound 3] were, in that order, 3300 nM, 260 nM and 13.
As for `Cc1ccc(OCC(O)CN(C)N)cc1.O=C(O)/C=C/C(=O)O` (stereo not drawn) [Compound 4], the IC50 in test [1] turned out to be 10000 nM. Further, in test [2], the concentration for half-maximal inhibition (IC50) was determined as 430 nM and the “Selectivity for VAP-1 SSAO over MAO” value is 23.
Regarding `COC(COc1cccc2ccccc12)CN(C)N.O=C(O)/C=C\C(=O)O` (stereo not drawn) [Compound 5], the half-maximal inhibitory concentration (IC50) is 4000 nM in test [1] and 520 nM in test [2]. Also, in test [2], the “Selectivity for VAP-1 SSAO over MAO” value was 8.
For `COc1ccc(OCC(O)CNNc2ccccc2)cc1.Cl` (stereo not drawn) [Compound 6], the IC50 in test [1] was found to be 3300 nM. In test [2], the IC50 came out at 90 nM and the “Selectivity for VAP-1 SSAO over MAO” value is on record as 37.
For the compound `COC(COc1ccc(C)cc1)CN(C)N.O=C(O)/C=C/C(=O)O` (stereo not drawn) [Compound 7], the half-maximal inhibitory concentration (IC50) in test [1] worked out at 6000 nM. For the same compound, in test [2], the concentration for half-maximal inhibition (IC50) stood at 440 nM and the “Selectivity for VAP-1 SSAO over MAO” value was determined as 14.
As for `CN(N)CC(O)COc1cccc2ccccc12.O=C(O)/C=C\C(=O)O` (stereo not drawn) [Compound 8], the IC50 in test [1] came out at 10000 nM. In test [2], the IC50 is 650 nM and the “Selectivity for VAP-1 SSAO over MAO” value is reported as 15.
Consider `COc1ccc(SCC(O)CN(C)N)cc1OC.O=C(O)/C=C/C(=O)O` (stereo not drawn) [Compound 9], for which the IC50 in test [1] turned out to be 41000 nM; in test [2], 210 nM. The “Selectivity for VAP-1 SSAO over MAO” value in test [2] stood at 195.
Turning to `CN(N)CC(O)COc1ccc2ccccc2c1.O=C(O)/C=C/C(=O)O` (stereo not drawn) [Compound 10], in test [1], the half-inhibitory concentration (IC50) is 6000 nM. Besides, in test [2], the half-maximal inhibitory concentration (IC50) turned out to be 550 nM and the “Selectivity for VAP-1 SSAO over MAO” value is on record as 11.
Regarding `CN(N)CC(O)CSc1ccccc1.O=C(O)/C=C/C(=O)O` (stereo not drawn) [Compound 11], the half-maximal inhibitory concentration (IC50) in test [1] worked out at 11000 nM; in test [2], 270 nM. Moreover, the “Selectivity for VAP-1 SSAO over MAO” value in test [2] was found to be 41.
`COc1cccc(OCC(O)CN(C)N)c1.O=C(O)/C=C/C(=O)O` (stereo not drawn) [Compound 12]: the concentration for half-maximal inhibition (IC50) in test [1] amounted to 37000 nM. In test [2], the IC50 came to 330 nM and the “Selectivity for VAP-1 SSAO over MAO” value was found to be 112.
`COC(COc1ccc2ccccc2c1)CN(C)N.O=C(O)/C=C/C(=O)O` (stereo not drawn) [Compound 13]: in test [1], the IC50 was 3300 nM. For the same compound, in test [2], the half-maximal inhibitory concentration (IC50) was 640 nM and the “Selectivity for VAP-1 SSAO over MAO” value stood at 5.
As for `COC(CSc1ccccc1)CN(C)N.O=C(O)/C=C/C(=O)O` (stereo not drawn) [Compound 14], the half-inhibitory concentration (IC50) in test [1] was 3400 nM. Also, in test [2], the half-maximal inhibitory concentration (IC50) is 370 nM and the “Selectivity for VAP-1 SSAO over MAO” value came to 9.
Take `COc1ccc(OCC(O)CN(C)N)cc1.O=C(O)/C=C\C(=O)O` (stereo not drawn) [Compound 16]: the IC50 in test [1] is 7400 nM. For the same compound, in test [2], the IC50 stood at 350 nM and the “Selectivity for VAP-1 SSAO over MAO” value was 21.
For the compound `CN(N)CC(O)COc1ccc(Cl)cc1.O=C(O)/C=C/C(=O)O` (stereo not drawn) [Compound 17], in test [1], the IC50 was found to be 6100 nM. Further, in test [2], the half-inhibitory concentration (IC50) came to 430 nM and the “Selectivity for VAP-1 SSAO over MAO” value was found to be 14.
Take `CN(N)CC(O)CN(C)c1ccccc1.O=C(O)/C=C/C(=O)O` (stereo not drawn) [Compound 19]: the IC50 in test [1] turned out to be 8800 nM; in test [2], 200 nM. Moreover, the “Selectivity for VAP-1 SSAO over MAO” value in test [2] was found to be 45.
As to `COC(CN(C)N)CN(C)c1ccccc1.O=C(O)/C=C/C(=O)O` (stereo not drawn) [Compound 20], the IC50 in test [1] was 9600 nM; in test [2], 340 nM. Further, the “Selectivity for VAP-1 SSAO over MAO” value in test [2] is given as 28.
